Source: US20120015906A1, “USES OF BORTEZOMIB IN PREDICTING SURVIVAL IN MULTIPLE MYELOMA PATIENTS” (priority 2009, published 2012)

Experiments:
Format in all cases: in vivo, human
[1] = test system: proteasome proteins; experiment: Mass spectrometry of proteasome proteins after bortezomib; details: mass spectroscopy, protein level
Source text: Representative examples of proteasome up-regulation after bortezomib at both the RNA and protein levels are depicted.
For further validation of GEP-derived data, the effects of bortezomib on proteasome proteins was also investigated by mass spectroscopy, (FIG. 8A). Representative examples of proteasome up-regulation after bortezomib at both the RNA and protein levels are depicted in FIG. 8A-8B.

[2] = test system: CD138-purified plasma cells; experiment: Gene expression profiling of plasma cells prior to and 48 hr after bortezomib test-dose; details: for Mean log2 Expression Change / Mean log2 Expression Change, Average: 48 hr after test-dose vs baseline
Protocol: Pharmacogenomic (PG) studies were performed as part of two TT3 trials (2003-33, n=303; 2006-66, n=177), obtaining plasma cells prior to and 48 hr after a bortezomib test-dose (1.0 mg/m2), which was accomplished in 142 patients receiving 2003-33 (training set) and […] receiving 2006-66 (test set). […] A continuous risk score was calculated and an optimal cut-point for event-free survival separation determined. The independent prognostic power of the binary risk score was tested in 2006-66. Multivariate analyses (MV) were employed to determine the role of post-bortezomib risk in relationship to standard prognostic variables and 70-gene baseline risk model.
The details of Total Therapy 3 are known in the art. In brief, protocol 2003-33 enrolled 303 newly diagnosed patients with myeloma into a tandem transplantation program, employing 2 cycles each of induction chemotherapy with VTD-PACE (bortezomib, thalidomide, dexamethasone; 4-day continuous infusions of cisplatin, doxorubicine, cyclophosphamide, etoposide) prior to and after melphalan-based transplantation, followed by VTD maintenance. A pharmaco-genomic aspect of the protocol called for gene expression profiling analyses of CD138-purified plasma cells obtained prior to and 48 hr following a test-dose application of bortezomib (1.0 mg/m2). The observation of prognostic consequences of bortezomib-induced gene expression profiling alterations provided the rationale for accrual of an additional 177 patients to an extension TT3 protocol, 2006-66, in order to validate the pharmaco-genomic data generated in the 2003-33 trial. Gene expression profiling baseline data were available in 275 and 169 patients entered on 2003-33 and 2006-66, respectively, 142 and 128 of whom had paired samples at baseline and 48 hr after test-dosing.
Multiple myeloma plasma cells were purified from bone marrow aspirates prior to and 48 hr following in vivo exposure to 1.0 mg/m2 of bortezomib in 142 of 303 patients enrolled in UARK2003-33 and 128 of 177 accrued to UARK2006-66. RNA was isolated from tumor cells and run on Affymetrix U133Plus2.0 microarrays. Multiple myeloma plasma cells were isolated from heparinized bone marrow (BM) aspirates using CD138-based immunomagnetic bead selection using the Miltenyi AutoMacs device (Miltenyi, Bergisch Gladbach, Germany). Peripheral Blood mononuclear cells were obtained through Ficoll gradient centrifugation. RNA purification, cDNA synthesis, cRNA preparation, and hybridization to the Human Genome U133Plus 2.0 GeneChip microarrays (Affymetrix, Santa Clara, Calif.) were performed.
The Affymetrix U133Plus2.0 microarrays were preprocessed and normalized with MAS5.0 software. […] Each of these 1051 genes was then correlated with event-free survival in a Cox regression model and ranked the genes by p-values. In order to explore the various potential survival implications, two sets of covariates were considered in the Cox model for each gene: a) percent change at 48 hr compared to the baseline expression, and b) 48 hr expression.

[3] = test system: proteasome genes; experiment: Proteasome gene expression changes after short-term exposure (test-dosing) to bortezomib, dexamethasone, thalidomide, melphalan; details: test-dosing in myeloma patients
Source text: In earlier studies, pharmacogenomics was used to identify genes altered by short-term exposure of therapy-naïve cases to thalidomide and dexamethasone. Little to no overlap was found in the genes altered by these agents with those altered by bortezomib.

With `CC(C)C[C@H](NC(=O)[C@H](Cc1ccccc1)NC(=O)c1cnccn1)B(O)O` [bortezomib] the “proteasome proteins after bortezomib” value [1] was “up-regulation”, the “Mean log2 Expression Change” value ([2]; ACVR1C 1552519_at) was −0.17 and the “Mean log2 Expression Change” value ([2]; ALDOA 238996_x_at) was 0.36. For the same compound, the “Mean log2 Expression Change” value ([2]; ANKRD37 242548_x_at) was −0.39, the “Mean log2 Expression Change” value ([2]; BIRC5 210334_x_at) was −0.35 and the “Mean log2 Expression Change” value ([2]; C1orf31 225638_at) was 0.18. For the same compound, the “Mean log2 Expression Change” value ([2]; C1orf128 229856_s_at) was −0.32, the “Mean log2 Expression Change” value ([2]; C9orf130 227893_at) was 0.16 and the “Mean log2 Expression Change” value ([2]; C14orf100 223215_s_at) was 0.12. For the same compound, the “Mean log2 Expression Change” value ([2]; C17orf60 217513_at) was 0.32, the “Mean log2 Expression Change” value ([2]; CHORDC1 218566_s_at) was 0.15 and the “Mean log2 Expression Change” value ([2]; CISH 221223_x_at) was −0.20. For the same compound, the “Mean log2 Expression Change” value ([2]; CISH 223377_x_at) was −0.18, the “Mean log2 Expression Change” value ([2]; CISH 223961_s_at) was −0.32 and the “Mean log2 Expression Change” value ([2]; COMMD8 218351_at) was 0.16. For the same compound, the “Mean log2 Expression Change” value ([2]; COPS5 201652_at) was 0.12, the “Mean log2 Expression Change” value ([2]; COX6C 201754_at) was 0.12 and the “Mean log2 Expression Change” value ([2]; CRYGS 223643_at) was −0.18. The “Mean log2 Expression Change” value ([2]; ENSA 202596_at) was 0.12, the “Mean log2 Expression Change” value ([2]; FLNA 214752_x_at) was 0.18 and the “Mean log2 Expression Change” value ([2]; FOSB 202768_at) was −0.54. The “Mean log2 Expression Change” value ([2]; FUNDC1 235346_at) was 0.13, the “Mean log2 Expression Change” value ([2]; GABARAPL1 208869_s_at) was 0.20 and the “Mean log2 Expression Change” value ([2]; HIST1H3B 208576_s_at) was 0.40. For the same compound, the “Mean log2 Expression Change” value ([2]; HNRPC 200014_s_at) was 0.11, the “Mean log2 Expression Change” value ([2]; HNRPC 212626_x_at) was 0.16 and the “Mean log2 Expression Change” value ([2]; K1AA1394 228984_at) was −0.29. The “Mean log2 Expression Change” value ([2]; K1AA1754 225582_at) was −0.14, the “Mean log2 Expression Change” value ([2]; KLHL7 223250_at) was 0.09 and the “Mean log2 Expression Change” value ([2]; LAP3 217933_s_at) was 0.15. For the same compound, the “Mean log2 Expression Change” value ([2]; LAPTM4A 200673_at) was 0.12, the “Mean log2 Expression Change” value ([2]; LOC400657 226924_at) was 0.11 and the “Mean log2 Expression Change” value ([2]; LOC643318 1557633_at) was −0.29. The “Mean log2 Expression Change” value ([2]; LOC644250 230292_at) was −0.34, the “Mean log2 Expression Change” value ([2]; LZTR2 1564423_a_at) was −0.23 and the “Mean log2 Expression Change” value ([2]; MGC61598 226499_at) was −0.29. The “Mean log2 Expression Change” value ([2]; MRPL47 223480_s_at) was 0.09, the “Mean log2 Expression Change” value ([2]; NMT1 201157_s_at) was 0.12 and the “Mean log2 Expression Change” value ([2]; NOLA1 219110_at) was 0.11. The “Mean log2 Expression Change” value ([2]; NR4A1 202340_x_at) was −0.79, the “Mean log2 Expression Change” value ([2]; NXT2 209628_at) was 0.13 and the “Mean log2 Expression Change” value ([2]; PDE4B 203708_at) was −0.25. The “Mean log2 Expression Change” value ([2]; PDE4B 211302_s_at) was −0.28, the “Mean log2 Expression Change” value ([2]; PDE4B 215671_at) was −0.42 and the “Mean log2 Expression Change” value ([2]; PSMA4 203396_at) was 0.14. For the same compound, the “Mean log2 Expression Change” value ([2]; PSMA7 201114_x_at) was 0.21, the “Mean log2 Expression Change” value ([2]; PSMB2 200039_s_at) was 0.17 and the “Mean log2 Expression Change” value ([2]; PSMB3 201400_at) was 0.13. The “Mean log2 Expression Change” value ([2]; PSMB4 202243_s_at) was 0.19, the “Mean log2 Expression Change” value ([2]; PSMB4 202244_at) was 0.15 and the “Mean log2 Expression Change” value ([2]; PSMB7 200786_at) was 0.15. The “Mean log2 Expression Change” value ([2]; PSMC4 201252_at) was 0.16, the “Mean log2 Expression Change” value ([2]; PSMC5 209503_s_at) was 0.17 and the “Mean log2 Expression Change” value ([2]; PSMD2 200830_at) was 0.13. For the same compound, the “Mean log2 Expression Change” value ([2]; PSMD4 200882_s_at) was 0.19, the “Mean log2 Expression Change” value ([2]; PSMD4 210460_s_at) was 0.19 and the “Mean log2 Expression Change” value ([2]; PSMD4 211609_x_at) was 0.20. For the same compound, the “Mean log2 Expression Change” value ([2]; PSMD14 212296_at) was 0.23, the “Mean log2 Expression Change” value ([2]; RBM33 238801_at) was −0.26 and the “Mean log2 Expression Change” value ([2]; RPL41 216215_s_at) was −0.16. The “Mean log2 Expression Change” value ([2]; SLC25A14 204587_at) was −0.10, the “Mean log2 Expression Change” value ([2]; SNRPD1 202690_s_at) was 0.11 and the “Mean log2 Expression Change” value ([2]; STAU2 229417_at) was 0.22. The “Mean log2 Expression Change” value ([2]; STAU2 233909_at) was −0.40, the “Mean log2 Expression Change” value ([2]; STX11 235670_at) was −0.14 and the “Mean log2 Expression Change” value ([2]; SUMO1 211069_s_at) was 0.10. For the same compound, the “Mean log2 Expression Change” value ([2]; TAGAP 1552542_s_at) was −0.19, the “Mean log2 Expression Change” value ([2]; TBC1D9 212960_at) was −0.19 and the “Mean log2 Expression Change” value ([2]; TMC8 236554_x_at) was 0.24. The “Mean log2 Expression Change” value ([2]; TUBA6 209251_x_at) was 0.12, the “Mean log2 Expression Change” value ([2]; UBPH 205687_at) was 0.16 and the “Mean log2 Expression Change” value ([2]; WIRE 212050_at) was −0.10. The “Mean log2 Expression Change” value ([2]; ZNF710 213658_at) was −0.12, the “Mean log2 Expression Change, Average” value ([2]; average of the Bad Genes) was 0.13 and the “Mean log2 Expression Change, Average” value ([2]; average of the Good Genes) was −0.16. For the same compound, the “average expression decrease of the good genes from baseline to post-bortezomib” value ([2]; high-risk group) was 1.22 fold, the “average expression increase of the bad genes from baseline to post-bortezomib” value ([2]; high-risk group) was 1.21 fold and the “average expression decrease of the good genes from baseline to post-bortezomib” value ([2]; low-risk group) was 1.09 fold. For the same compound, the “average expression increase of the bad genes from baseline to post-bortezomib” value ([2]; low-risk group) was 1.07 fold, the “Mean log2 Expression Change” value ([2]; probeset 226399_at (no gene symbol)) was 0.09 and the “Mean log2 Expression Change” value ([2]; probeset 227524_at (no gene symbol)) was −0.17. The “Mean log2 Expression Change” value ([2]; probeset 229388_at (no gene symbol)) was 0.22, the “Mean log2 Expression Change” value ([2]; probeset 236986_at (no gene symbol)) was −0.13 and the “Mean log2 Expression Change” value ([2]; probeset 239082_at (no gene symbol)) was −0.11. The “Mean log2 Expression Change” value ([2]; probeset 239343_at (chr12q23.3, no gene symbol)) was 0.19, the “Mean log2 Expression Change” value ([2]; probeset 1561060_at (no gene symbol)) was −0.27 and the “proteasome gene expression change after short-term exposure” value [3] was “hyper-activation of proteasome genes”.
